Data on two compounds can be found in ChEMBL document CHEMBL1201862, “PubChem BioAssay data set” (2004).

Usually EC50 stands for the concentration that produces a half-maximal response. By IC50 is commonly meant the point on the concentration scale where inhibition reaches its midpoint. A word on the AC50: it is the concentration giving half of the maximal activity seen.

Assay [1] has as its target Sphingosine 1-phosphate receptor 1 (Homo sapiens, UniProt P21453). Nature of the assay: Fluorescence-based counterscreen assay for S1P4 agonists: Cell-based dose response high throughput screening assay to identify agonists of the Sphingosine 1-Phosphate Receptor 1 (S1P1). [Related pubchem assays (depositor defined):AID1509, AID1523, AID1801, AID463107, AID463118, AID463119, AID463122, AID463123, AID463129, AID463225, AID504400, AID504460]. Format: functional.

Assay [2] deals with T1, Sphingosine 1-phosphate receptor 4 (Homo sapiens, UniProt O95977).
T1 sequence (O95977 whole entry): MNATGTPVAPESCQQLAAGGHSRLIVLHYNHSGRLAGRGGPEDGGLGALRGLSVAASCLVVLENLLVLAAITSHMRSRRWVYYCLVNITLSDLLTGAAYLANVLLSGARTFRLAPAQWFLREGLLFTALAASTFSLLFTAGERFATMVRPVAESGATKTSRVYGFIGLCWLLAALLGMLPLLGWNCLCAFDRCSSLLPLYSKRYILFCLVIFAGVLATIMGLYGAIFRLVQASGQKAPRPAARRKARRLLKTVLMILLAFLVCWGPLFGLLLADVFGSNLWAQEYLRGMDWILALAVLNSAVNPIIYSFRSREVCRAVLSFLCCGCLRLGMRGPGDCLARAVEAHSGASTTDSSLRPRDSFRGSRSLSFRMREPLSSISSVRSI
Nature of the assay: Fluorescence dose response cell-based high throughput screening assay for agonists of the Sphingosine 1-Phosphate Receptor 4 (S1P4). [Related pubchem assays: 1509 (Primary screen.), 1523 (Confirmation screen in triplicates.)]. The class given is functional.

The target of assay [3] is T2, 5-hydroxytryptamine receptor 1A (Homo sapiens, UniProt P08908).
T2 sequence (P08908 whole entry): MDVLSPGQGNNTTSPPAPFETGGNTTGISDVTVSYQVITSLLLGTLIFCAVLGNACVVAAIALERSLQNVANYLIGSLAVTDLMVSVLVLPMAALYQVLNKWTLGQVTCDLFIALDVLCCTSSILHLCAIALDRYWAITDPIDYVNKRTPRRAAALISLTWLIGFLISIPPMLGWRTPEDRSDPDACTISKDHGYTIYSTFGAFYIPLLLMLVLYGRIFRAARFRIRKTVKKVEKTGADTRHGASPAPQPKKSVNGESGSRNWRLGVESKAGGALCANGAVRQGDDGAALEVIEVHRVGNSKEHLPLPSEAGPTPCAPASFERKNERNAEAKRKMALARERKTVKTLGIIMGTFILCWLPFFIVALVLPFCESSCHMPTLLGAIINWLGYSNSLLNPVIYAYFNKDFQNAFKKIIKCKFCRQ
Format: functional.

Assay [4] concerns the target Sphingosine 1-phosphate receptor 2 (Homo sapiens, UniProt O95136). The experiment in a line: Dose Response Cell Based Assay for Agonists of the S1P2 Receptor. [Related pubchem assays: 729, 736, 843 ]. The class given is functional.
Assay [5] has as its system BJ. The experiment in a line: cytotoxicity toward BJ-TERT fibroblasts, dose response, cell-based, RAS-independent, luminescence (AID 1933). The class given is functional. The following applies: Homo sapiens.
Assay [6] deals with BJ. Nature of the assay: cells. Format: functional, cell-based. The settings on record: Homo sapiens.
A short description of assay [7]: microbe, parasite or virus in culture. Format: functional. The following applies: Mycobacterium tuberculosis.
Assay [8] has as its system BJ. Nature of the assay: cytotoxicity toward BJ-TERT-LT-ST fibroblasts, dose response, cell-based, RAS-independent, luminescence (AID 1935).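 Further: BJ fibroblasts immortalized with TERT plus LT and ST oncogenes.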 The class given is functional. The following applies: Homo sapiens.
Assay [9] is described as follows: cytotoxicity toward DRD oncogenic fibroblasts, dose response, cell-based, non-viral oncogenic, luminescence (AID 1934). Format: functional. The following applies: Homo sapiens.
Assay [10] can be described thus: THP-1 cell cytotoxicity, dose response, cytotoxicity control for non-replicating M. tuberculosis project (AID 489025). The class given is functional.
Assay [11] can be described thus: Vero E6 cell cytotoxicity, dose response, cytotoxicity control for non-replicating M. tuberculosis project, secondary assay (AID 492998). Format: functional, VeroE6. The settings on record: Vero C1008.
Assay [12] has as its target Nonstructural protein 1 (Influenza A virus, UniProt Q194T2). The class given is functional, Influenza A virus (A/California/07/2009(H1N1)).
The target in assay [13] is Lysine-specific demethylase 4A (Homo sapiens, UniProt O75164). Nature of the assay: JMJD2A histone demethylase inhibitors, dose response, selectivity assay for GASC-1 inhibitor project, biochemical, DELFIA europium, cherry-picked samples (AID 488840).
Sequence of Lysine-specific demethylase 4A (O75164 whole entry): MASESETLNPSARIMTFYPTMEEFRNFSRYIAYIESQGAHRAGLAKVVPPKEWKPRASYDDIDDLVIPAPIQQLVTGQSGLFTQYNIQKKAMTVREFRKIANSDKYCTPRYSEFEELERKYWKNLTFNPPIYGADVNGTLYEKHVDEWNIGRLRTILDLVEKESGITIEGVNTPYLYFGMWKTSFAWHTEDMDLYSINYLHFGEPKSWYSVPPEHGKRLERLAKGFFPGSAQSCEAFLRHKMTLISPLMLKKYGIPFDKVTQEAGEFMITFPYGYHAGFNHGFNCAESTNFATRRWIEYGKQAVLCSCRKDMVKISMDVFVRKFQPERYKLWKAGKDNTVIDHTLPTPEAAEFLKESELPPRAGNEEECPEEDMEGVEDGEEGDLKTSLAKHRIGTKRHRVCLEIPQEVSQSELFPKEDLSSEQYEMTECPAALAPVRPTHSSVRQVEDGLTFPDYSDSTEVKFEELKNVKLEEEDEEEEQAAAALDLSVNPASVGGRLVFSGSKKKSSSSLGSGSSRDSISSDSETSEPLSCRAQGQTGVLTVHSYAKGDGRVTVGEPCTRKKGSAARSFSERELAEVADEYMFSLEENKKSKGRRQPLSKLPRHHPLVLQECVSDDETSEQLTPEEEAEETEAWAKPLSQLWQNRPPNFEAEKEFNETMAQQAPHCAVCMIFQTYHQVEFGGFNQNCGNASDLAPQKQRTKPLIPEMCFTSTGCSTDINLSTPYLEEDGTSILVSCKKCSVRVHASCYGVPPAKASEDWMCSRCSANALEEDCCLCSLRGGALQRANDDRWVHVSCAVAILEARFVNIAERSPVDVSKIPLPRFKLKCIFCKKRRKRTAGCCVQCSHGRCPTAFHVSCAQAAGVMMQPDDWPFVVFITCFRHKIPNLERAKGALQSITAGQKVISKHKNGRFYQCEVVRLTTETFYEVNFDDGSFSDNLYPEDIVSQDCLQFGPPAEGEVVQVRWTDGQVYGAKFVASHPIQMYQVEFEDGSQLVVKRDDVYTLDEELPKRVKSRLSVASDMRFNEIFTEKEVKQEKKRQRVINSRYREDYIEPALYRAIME
Assay [14] deals with Lysine-specific demethylase 4C (Homo sapiens, UniProt Q9H3R0). The experiment in a line: GASC-1 (JMJD2C) histone demethylase inhibitors, dose response, biochemical, DELFIA europium, cherry-picked samples (AID 488835). Format: functional.
Sequence of Lysine-specific demethylase 4C (Q9H3R0 whole entry): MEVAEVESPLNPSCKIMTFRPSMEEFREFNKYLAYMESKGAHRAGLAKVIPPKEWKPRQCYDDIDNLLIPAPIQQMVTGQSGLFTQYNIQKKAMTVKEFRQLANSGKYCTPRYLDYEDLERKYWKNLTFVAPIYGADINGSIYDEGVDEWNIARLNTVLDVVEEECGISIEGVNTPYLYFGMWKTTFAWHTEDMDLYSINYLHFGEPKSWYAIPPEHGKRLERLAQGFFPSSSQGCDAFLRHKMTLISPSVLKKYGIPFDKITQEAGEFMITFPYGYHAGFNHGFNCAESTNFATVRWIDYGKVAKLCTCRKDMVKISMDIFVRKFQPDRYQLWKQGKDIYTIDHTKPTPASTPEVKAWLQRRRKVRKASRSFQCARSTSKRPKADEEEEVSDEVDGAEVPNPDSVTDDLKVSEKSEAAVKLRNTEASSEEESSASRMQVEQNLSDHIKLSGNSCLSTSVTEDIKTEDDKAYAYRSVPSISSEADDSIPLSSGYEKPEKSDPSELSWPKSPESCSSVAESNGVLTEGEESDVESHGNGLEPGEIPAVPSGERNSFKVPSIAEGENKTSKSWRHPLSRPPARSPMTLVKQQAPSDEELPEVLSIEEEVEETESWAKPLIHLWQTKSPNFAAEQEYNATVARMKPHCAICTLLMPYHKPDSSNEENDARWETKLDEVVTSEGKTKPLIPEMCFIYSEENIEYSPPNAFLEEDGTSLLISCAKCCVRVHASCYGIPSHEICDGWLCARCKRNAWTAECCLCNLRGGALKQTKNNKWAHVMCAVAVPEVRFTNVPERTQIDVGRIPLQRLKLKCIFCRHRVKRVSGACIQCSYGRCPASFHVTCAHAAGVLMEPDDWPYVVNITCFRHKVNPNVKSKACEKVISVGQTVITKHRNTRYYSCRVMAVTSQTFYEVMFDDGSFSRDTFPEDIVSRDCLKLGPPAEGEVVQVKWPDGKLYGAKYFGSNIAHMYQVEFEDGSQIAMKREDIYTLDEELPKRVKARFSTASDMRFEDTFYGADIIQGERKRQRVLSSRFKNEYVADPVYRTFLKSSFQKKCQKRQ
Assay [15] in a line: cells. The class given is functional.
In assay [16] the test system is INS1. The experiment in a line: beta cell apoptosis inhibitors, cytokine rescue, dose response, luminescence, retest (AID 449756).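 Further: cell death triggered by IL-1 beta plus TNF-alpha plus IFN-gamma mixture; protective hits raise ATP signal compared with cytokine alone wells.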 The class given is functional, cell-based. The settings on record: Rattus norvegicus.

Activity calls are given as the source filed them.

Sequence of Sphingosine 1-phosphate receptor 1 (P21453 whole entry): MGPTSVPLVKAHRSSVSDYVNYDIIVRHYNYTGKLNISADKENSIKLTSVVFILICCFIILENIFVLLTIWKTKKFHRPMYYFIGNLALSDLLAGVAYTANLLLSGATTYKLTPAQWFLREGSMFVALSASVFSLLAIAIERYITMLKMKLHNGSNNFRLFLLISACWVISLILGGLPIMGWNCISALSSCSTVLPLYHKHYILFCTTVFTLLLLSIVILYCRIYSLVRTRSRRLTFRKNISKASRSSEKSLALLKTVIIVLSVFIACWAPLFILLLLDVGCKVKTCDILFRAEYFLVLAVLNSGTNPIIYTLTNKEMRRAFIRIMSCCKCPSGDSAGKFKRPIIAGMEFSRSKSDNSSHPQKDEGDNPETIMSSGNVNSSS
Sequence of Sphingosine 1-phosphate receptor 2 (O95136 whole entry): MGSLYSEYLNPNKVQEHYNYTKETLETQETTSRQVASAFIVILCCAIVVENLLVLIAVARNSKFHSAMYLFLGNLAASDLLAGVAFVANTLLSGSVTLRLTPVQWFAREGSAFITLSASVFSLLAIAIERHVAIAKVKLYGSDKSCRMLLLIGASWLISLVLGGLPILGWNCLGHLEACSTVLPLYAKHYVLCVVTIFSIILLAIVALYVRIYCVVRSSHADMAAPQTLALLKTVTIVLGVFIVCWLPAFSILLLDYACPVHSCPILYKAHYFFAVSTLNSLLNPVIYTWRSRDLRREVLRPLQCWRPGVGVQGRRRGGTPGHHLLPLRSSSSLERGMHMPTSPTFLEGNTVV
Sequence of Nonstructural protein 1 (Q194T2 whole entry): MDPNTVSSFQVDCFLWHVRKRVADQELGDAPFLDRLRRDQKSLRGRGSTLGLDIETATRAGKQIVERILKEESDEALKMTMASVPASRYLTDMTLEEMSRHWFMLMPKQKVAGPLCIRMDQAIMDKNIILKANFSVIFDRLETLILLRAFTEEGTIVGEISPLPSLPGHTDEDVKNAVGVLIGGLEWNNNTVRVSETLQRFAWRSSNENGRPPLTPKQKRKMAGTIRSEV

As to `CCOC(=O)c1cc2ccc(OC(=O)c3ccco3)cc2oc1=O`, the EC50 is 2.08 µM (active) in assay [1], 785 nM (active) in assay [2], > 50 µM (not active) in [3] and 1.99 µM (active) in [4].
On to `N#C/C(N=Nc1ccccc1O)=N\Nc1ccccc1O`, for which the EC50 in [5] was 5.98 µM (active); in assay [6] it was 7.91 µM (active); in assay [8] it was 6.76 µM (active); in [9], 8.75 µM (active). The CC50 in assay [7] is 4.13 µM (active); in assay [10] it was 3.15 µM (active); in assay [11], 7.05 µM (active). For the same compound, the IC50 was 10.9 µM (active) in assay [12] and 1.29 µM (active) in [15]. Also, the AC50 in assay [13] is 3.37 µM (active); in assay [14] it was 388 nM (active); in [16], 2.3 µM (active).
